Patent US20260357222A1, “GROWTH-BASED SELECTION PLATFORM FOR NONCANONICAL COFACTOR OXIDIZING ENZYMES” (The Regents of the University of California, priority 2022, published 2026)

Legend:
[1] = molecular target: T1, Lactobacillus pentosus NADH oxidase (Lp Nox) variant LP-3 (I158S-D177W-G178E-V240L), SEQ ID NO:6 (Lactiplantibacillus pentosus, UniProt A0A0U3FIG2, D177W/G178E/I158S/V240L); test: Lp Nox enzymatic kinetics, cofactor oxidation at 340 nm, variant LP-3; format: biochemical; details: role: cofactor; apparent; 50 mM Tris-HCl pH 7.0, 37 °C; cofactor 0 to 2 mM
T1 construct: variant LP-3
T1 sequence (A0A0U3FIG2 1-450 I158S/D177W/G178E/V240L): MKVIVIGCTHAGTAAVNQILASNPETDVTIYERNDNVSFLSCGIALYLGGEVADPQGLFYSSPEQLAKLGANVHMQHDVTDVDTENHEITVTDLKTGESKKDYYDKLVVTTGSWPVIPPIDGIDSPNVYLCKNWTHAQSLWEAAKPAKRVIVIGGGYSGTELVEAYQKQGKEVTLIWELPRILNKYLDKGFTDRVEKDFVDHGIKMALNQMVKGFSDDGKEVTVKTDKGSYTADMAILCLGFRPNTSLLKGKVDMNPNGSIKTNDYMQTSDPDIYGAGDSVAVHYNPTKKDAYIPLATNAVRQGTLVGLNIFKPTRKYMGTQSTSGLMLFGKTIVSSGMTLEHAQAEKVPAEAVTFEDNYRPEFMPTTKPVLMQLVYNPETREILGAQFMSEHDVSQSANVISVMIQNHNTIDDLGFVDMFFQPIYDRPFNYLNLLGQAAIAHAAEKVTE
Protocol: (§1) Protein Expression and Purification. Lp Nox wild type or variants (see Table 1) are expressed with E. coli BL21 (DE3) with plasmids inoculated in 2× YT media with 200 mg L^−1 ampicillin. Expression was carried out by inoculation of 20 mL 2× YT media supplied with antibiotics and an overnight culture incubated at 30 °C, 250 RPM with an OD600nm of 0.072. Cells were grown at 37 °C in 50 mL conical tubes, and the cultures were induced with 0.5 mM IPTG at an OD600nm of 0.6-1.0. The 20 mL culture was then incubated at 27 °C and 250 RPM for 24 h. After 24 h, cells were harvested for protein extraction (centrifugation at 4 °C, 3000 RPM, 20 min). Cell pellets were resuspended in Zymo His-Binding buffer (Zymo Research Corporation) supplied with 0.15 mM FAD, 1 μL/mL DNase (Sigma Aldrich) and 1 mM InSolution [COMPOUND LEFT OUT] (Sigma Aldrich). The resuspended cell mixture was added to 0.5 mL of 0.1 mm glass beads (Biospec) and homogenized using a benchtop homogenizer (MP Biomedicals). Cell debris was separated from the crude extract by centrifugation at 4 °C and 15,000 RPM for 5 min. Protein purification was performed using His-Spin Protein Miniprep (Zymo Research Corporation) according to the manufacturer's instructions. The concentrations of purified protein were quantified by a Bradford assay using BSA as a standard. Purified protein was stored in aliquots with 20% (v/v) glycerol at −80 °C.
(§2) NMNH generation. NMNH generation was performed in 20 mL reaction volumes in a 50 ml conical tube containing 200 mM Tris-Cl at pH 8.0, 100 mM sodium chloride, 3 mM potassium chloride, 200 mM glucose, and 20 m MNMN^+. The reaction was initiating by spiking 500 ng of purified Bacillus subtilis glucose dehydrogenase I195R8. The reaction was incubated at 30 °C until reaction progression stopped, approximately 6 h. Reaction progression was monitored by observing the increase in light absorption at 340 nm, corresponding to the reduction of NMN^+ to NMNH. Then, the solution was filtered through a 15 kD cutoff filter to remove the protein. To purify the NMNH, the flowthrough was mixed with HPLC-grade acetonitrile to a final concentration of 70% acetonitrile, and the solution was passed through a Phenomenex Strata NH2 (2 g/12 mL, 55 μm, 70 Å) solid phase extraction column. The column was washed twice with 4 mL of 70:30 acetonitrile:water, then twice with 4 mL of 50:50 acetonitrile:water, twice with 4 mL of 30:70 acetonitrile:water, twice with 4 mL of nanopurified water, and finally twice with 4 mL of methanol. To elute the NMNH from the column, 2 mL of a solution containing 50:50 ammonium hydroxide:methanol was added to the column and incubated for 3 minutes before eluting. The elution step was repeated until no NMNH remained in the flow through, as monitored by light absorption at 340 nm. The elution fractions containing NMNH were pooled and aliquoted in 1 mL volumes into clean tubes. The solutions were dried over air and stored at −80 °C until use.
(§3) Lp Nox Enzymatic Assays and Kinetic study with NMNH, NAD(P) H. The Lp Nox activity (see FIG. 4A) was determined by the change in light absorption at 340 nm at 37 °C in 50 mM Tris-Cl buffer pH 7.0. The reactions were started by adding the purified protein to the prewarmed 37 °C assay mixture containing 0.3 mM of respective cofactor. The absorbance change at 340 nm for NAD(P) H and NMNH was detected using a SpectraMax M3 microplate reader. For kinetics parameter determination (see Table 2), cofactor concentrations were varied from 0 to 2 mM and the results were fitted to the standard Michaelis-Menten equation or Lineweaver-Burk equation to acquire catalytic efficiencies (kcat/Km) when the cofactor concentration tested could not saturate the enzyme activity or during the presence of substrate inhibition. Cofactor concentration over 2 mM could not be measured accurately on M3 spectrometer due to detector absorbance saturation at 340 nm.

[2] = molecular target: T2, Lactobacillus pentosus NADH oxidase (Lp Nox), wild type, SEQ ID NO:1 (Lactiplantibacillus pentosus, UniProt A0A0U3FIG2); test: Lp Nox enzymatic kinetics, cofactor oxidation at 340 nm, wild type; format: biochemical; details: role: cofactor; apparent; 50 mM Tris-HCl pH 7.0, 37 °C; cofactor 0 to 2 mM
T2 sequence (A0A0U3FIG2 1-450): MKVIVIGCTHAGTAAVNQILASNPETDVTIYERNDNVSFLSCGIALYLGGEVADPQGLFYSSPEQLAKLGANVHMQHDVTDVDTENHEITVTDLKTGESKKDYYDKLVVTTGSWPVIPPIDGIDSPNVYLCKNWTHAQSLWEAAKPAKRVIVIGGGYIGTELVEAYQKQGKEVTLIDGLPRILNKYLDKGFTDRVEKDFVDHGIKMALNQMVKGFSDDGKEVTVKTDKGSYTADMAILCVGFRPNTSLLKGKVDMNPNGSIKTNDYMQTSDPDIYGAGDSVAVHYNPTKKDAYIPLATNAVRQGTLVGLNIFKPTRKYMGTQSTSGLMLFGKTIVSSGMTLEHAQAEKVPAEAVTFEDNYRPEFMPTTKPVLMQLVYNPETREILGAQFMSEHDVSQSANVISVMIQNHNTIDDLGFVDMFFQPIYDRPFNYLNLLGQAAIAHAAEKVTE
Protocol: as §1
NMNH generation. NMNH generation was performed in 20 mL reaction volumes in a 50 ml conical tube containing 200 mM Tris-Cl at pH 8.0, 100 mM sodium chloride, 3 mM potassium chloride, 200 mM glucose, and 20 m MNMN^+. The reaction was initiating by spiking 500 ng of purified Bacillus subtilis glucose dehydrogenase I195R8. The reaction was incubated at 30 °C until reaction progression stopped, approximately 6 h. Reaction progression was monitored by observing the increase in light absorption at 340 nm, corresponding to the reduction of NMN^+ to NMNH. Then, the solution was filtered through a 15 kD cutoff filter to remove the protein. […] The elution step was repeated until no NMNH remained in the flow through, as monitored by light absorption at 340 nm. […]
(§4) Lp Nox Enzymatic Assays and Kinetic study with NMNH, NAD(P) H. The Lp Nox activity (see FIG. 4A) was determined by the change in light absorption at 340 nm at 37 °C in 50 mM Tris-Cl buffer pH 7.0. […] The absorbance change at 340 nm for NAD(P) H and NMNH was detected using a SpectraMax M3 microplate reader. […] Cofactor concentration over 2 mM could not be measured accurately on M3 spectrometer due to detector absorbance saturation at 340 nm.

[3] = molecular target: T3, Lactobacillus pentosus NADH oxidase (Lp Nox) variant LP-3-EP (I158S-D177W-G178E-V240L-P362H-V395L), SEQ ID NO:7 (Lactiplantibacillus pentosus, UniProt A0A0U3FIG2, D177W/G178E/I158S/P362H/V240L/V395L); test: Lp Nox enzymatic kinetics, cofactor oxidation at 340 nm, variant LP-3-EP; format: biochemical
T3 construct: variant LP-3-EP
T3 sequence (A0A0U3FIG2 1-450 I158S/D177W/G178E/V240L/P362H/V395L): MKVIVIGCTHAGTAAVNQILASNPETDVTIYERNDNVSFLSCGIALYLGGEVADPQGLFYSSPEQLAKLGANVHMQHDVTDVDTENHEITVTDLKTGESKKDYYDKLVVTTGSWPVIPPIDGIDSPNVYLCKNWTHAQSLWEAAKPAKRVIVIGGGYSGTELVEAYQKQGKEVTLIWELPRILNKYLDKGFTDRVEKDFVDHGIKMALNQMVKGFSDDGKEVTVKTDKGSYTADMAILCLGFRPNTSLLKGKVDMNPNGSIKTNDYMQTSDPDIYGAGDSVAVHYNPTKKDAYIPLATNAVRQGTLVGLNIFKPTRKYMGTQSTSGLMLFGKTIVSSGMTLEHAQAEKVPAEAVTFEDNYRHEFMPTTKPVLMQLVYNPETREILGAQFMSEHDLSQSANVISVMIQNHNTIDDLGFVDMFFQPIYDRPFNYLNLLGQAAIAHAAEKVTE
Protocol: as §1, §2, §3

[4] = molecular target: T4, Lactobacillus pentosus NADH oxidase (Lp Nox) variant LP-7 (I158S-D177W-V240L), SEQ ID NO:3 (Lactiplantibacillus pentosus, UniProt A0A0U3FIG2, D177W/I158S/V240L); test: Lp Nox enzymatic kinetics, cofactor oxidation at 340 nm, variant LP-7; format: biochemical; details: role: cofactor; apparent; 50 mM Tris-HCl pH 7.0, 37 °C; cofactor 0 to 2 mM
T4 construct: variant LP-7
T4 sequence (A0A0U3FIG2 1-450 I158S/D177W/V240L): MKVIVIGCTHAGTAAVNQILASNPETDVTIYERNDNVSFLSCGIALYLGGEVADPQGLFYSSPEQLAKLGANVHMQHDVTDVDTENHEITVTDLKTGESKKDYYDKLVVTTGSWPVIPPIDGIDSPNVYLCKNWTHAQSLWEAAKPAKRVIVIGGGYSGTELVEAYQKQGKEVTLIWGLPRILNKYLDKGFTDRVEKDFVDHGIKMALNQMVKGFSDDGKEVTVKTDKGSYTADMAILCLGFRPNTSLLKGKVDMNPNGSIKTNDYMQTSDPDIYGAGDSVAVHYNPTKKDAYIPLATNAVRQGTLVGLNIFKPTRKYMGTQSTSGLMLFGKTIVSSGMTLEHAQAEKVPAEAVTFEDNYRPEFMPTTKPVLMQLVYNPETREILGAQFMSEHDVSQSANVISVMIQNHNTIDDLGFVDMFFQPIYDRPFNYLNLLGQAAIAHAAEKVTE
Protocol: as §1, §2, §3

[5] = molecular target: T2, Lactobacillus pentosus NADH oxidase (Lp Nox), wild type, SEQ ID NO:1; details: role: cofactor; oxidation of MNAH and BNAH by wild-type Lp Nox; cited from earlier work
[6] = substrate: NC(=O)C1=CN([C@@H]2O[C@H](COP(=O)(O)OP(=O)(O)OC[C@H]3O[C@@H](n4cnc5c(N)ncnc54)[C@H](O)[C@@H]3O)[C@@H](O)[C@H]2O)C=CC1; test: Lp Nox enzymatic kinetics, cofactor oxidation at 340 nm, wild type; format: biochemical, Lactobacillus pentosus; details: other: role: cofactor, apparent, 50 mM Tris-HCl pH 7.0, 37 °C, cofactor 0 to 2 mM
Protocol: as §1, with “Purified protein was stored in aliquots with 20% (v/v) glycerol at −80 °C.” left out
NMNH generation. […] Reaction progression was monitored by observing the increase in light absorption at 340 nm, corresponding to the reduction of NMN^+ to NMNH. […] The elution step was repeated until no NMNH remained in the flow through, as monitored by light absorption at 340 nm. […]
as §4

In the case of `NC(=O)C1=CN([C@@H]2O[C@H](COP(=O)(O)OP(=O)(O)OC[C@H]3O[C@@H](n4cnc5c(N)ncnc54)[C@H](OP(=O)(O)O)[C@@H]3O)[C@@H](O)[C@H]2O)C=CC1` [NADPH, nicotinamide adenine dinucleotide phosphate], the Km [1] is reported as 1100 ± 100 µM, the kcat [1] is reported as 28 ± 1 s⁻¹ and the kcat/Km [1] is reported as 26000 ± 1000 M⁻¹ s⁻¹. For the same molecule, the Km [2] was 1900 ± 200 µM, the kcat [2] was 18 ± 2 s⁻¹ and the kcat/Km [2] was 9300 ± 200 M⁻¹ s⁻¹. For the same molecule, the kcat/Km ([3]; role: cofactor, 50 mM Tris-HCl pH 7.0, 37 °C, estimated based on kinetics under lower cofactor concentrations before inhibition was observed) was 51 ± 3^c mM^−1s^−1, the “inhibition of LP 3-EP activity by the cofactor” value ([3]; role: inhibitor (cofactor inhibition), above 1 mM NADH or NADPH, fits poorly with the substrate inhibition rate equation) was “strongly inhibited” and the Km [4] was 890 ± 40 µM. The kcat [4] was 27 ± 2 s⁻¹ and the kcat/Km [4] was 31000 ± 1000 M⁻¹ s⁻¹.

In the case of `NC(=O)C1=CN(Cc2ccccc2)C=CC1` [BNAH, 1-Benzyl-1,4-dihydronicotinamide], the “catalytic efficiencies (in words)” value [5] is given as “low catalytic efficiencies”.

B1: Lactobacillus pentosus NADH oxidase (Lp Nox), wild type, SEQ ID NO:1 (Lactiplantibacillus pentosus) (protein)
chain: MKVIVIGCTHAGTAAVNQILASNPETDVTIYERNDNVSFLSCGIALYLGGEVADPQGLFYSSPEQLAKLGANVHMQHDVTDVDTENHEITVTDLKTGESKKDYYDKLVVTTGSWPVIPPIDGIDSPNVYLCKNWTHAQSLWEAAKPAKRVIVIGGGYIGTELVEAYQKQGKEVTLIDGLPRILNKYLDKGFTDRVEKDFVDHGIKMALNQMVKGFSDDGKEVTVKTDKGSYTADMAILCVGFRPNTSLLKGKVDMNPNGSIKTNDYMQTSDPDIYGAGDSVAVHYNPTKKDAYIPLATNAVRQGTLVGLNIFKPTRKYMGTQSTSGLMLFGKTIVSSGMTLEHAQAEKVPAEAVTFEDNYRPEFMPTTKPVLMQLVYNPETREILGAQFMSEHDVSQSANVISVMIQNHNTIDDLGFVDMFFQPIYDRPFNYLNLLGQAAIAHAAEKVTE
Work on B1 yielded a Km [6] of 24 ± 5 µM, a kcat [6] of 21 ± 1 s⁻¹ and a kcat/Km [6] of 844000 ± 4000 M⁻¹ s⁻¹.
